Source: ChEMBL document CHEMBL3885881, “DrugMatrix”

Species: Rattus norvegicus
Test: DrugMatrix - Regimen: Daily Repeat
Type: toxicity, organism-based, Sprague-Dawley
Design: regimen Daily Repeat, gender Male, age 6-8 weeks
Conditions: in vivo, po, route oral GAVAGE, vehicle .5 % CMC; for ABSOLUTE BASOPHIL / ABSOLUTE EOSINOPHIL / ABSOLUTE LYMPHOCYTE / ABSOLUTE MONOCYTE / ABSOLUTE SEGMENTED NEUTROPHIL / BASOPHIL / EOSINOPHIL / ERYTHROCYTE COUNT / HEMATOCRIT / HEMOGLOBIN / LEUKOCYTE COUNT / LYMPHOCYTE / MEAN CORPUSCULAR HEMOGLOBIN / MEAN CORPUSCULAR HEMOGLOBIN CONCENTRATION / MEAN CORPUSCULAR VOLUME / MONOCYTE / NEUTROPHIL / NUCLEATED RED BLOOD CELLS / PLATELET COUNT: tissue Blood; for ALANINE AMINOTRANSFERASE / ALBUMIN / ALKALINE PHOSPHATASE / ASPARTATE AMINOTRANSFERASE / BLOOD UREA NITROGEN / CARBON DIOXIDE / CHLORIDE / CHOLESTEROL / CREATINE PHOSPHOKINASE / CREATININE / GLUCOSE / LACTATE DEHYDROGENASE / LIPASE / PHOSPHORUS / POTASSIUM / SODIUM / TOTAL BILIRUBIN / TOTAL PROTEIN / URIC ACID: tissue Plasma
[1] = 100 mg/kg, 120 h, dose level Low, time 5 day
[2] = 501 mg/kg, 72 h, dose level High, time 3 day
[3] = 501 mg/kg, 120 h, dose level High, time 5 day

SMILES: CCc1ccc(C(=O)C(C)CN2CCCCC2)cc1 (centres undefined) [EPERISONE]
- ABSOLUTE BASOPHIL [1]: 0 CELLS/uL
- ABSOLUTE EOSINOPHIL [1]: 0 CELLS/uL
- ABSOLUTE LYMPHOCYTE [1]: 13749 CELLS/uL
- ABSOLUTE MONOCYTE [1]: 246.33 CELLS/uL
- ABSOLUTE SEGMENTED NEUTROPHIL [1]: 1338 CELLS/uL
- BASOPHIL [1]: 0%
- EOSINOPHIL [1]: 0%
- ERYTHROCYTE COUNT [1]: 5.46 x10E6/uL
- HEMATOCRIT [1]: 34.27%
- HEMOGLOBIN [1]: 13.2 G/DL
- LEUKOCYTE COUNT [1]: 15.33 x10E3/uL
- LYMPHOCYTE [1]: 89.67%
- MEAN CORPUSCULAR HEMOGLOBIN [1]: 24.17 pg
- MEAN CORPUSCULAR HEMOGLOBIN CONCENTRATION [1]: 38.53 G/DL
- MEAN CORPUSCULAR VOLUME [1]: 62.83 fL
- MONOCYTE [1]: 1.67%
- NEUTROPHIL [1]: 8.67%
- NUCLEATED RED BLOOD CELLS [1]: 0 /100WBC
- PLATELET COUNT [1]: 1278.33 x10E3/uL
- ALANINE AMINOTRANSFERASE [1]: 50 u/L
- ALBUMIN [1]: 4.27 G/DL
- ALKALINE PHOSPHATASE [1]: 325.67 u/L
- ASPARTATE AMINOTRANSFERASE [1]: 101.33 u/L
- BLOOD UREA NITROGEN [1]: 17.33 mg/dL
- CARBON DIOXIDE [1]: 25.33 mmol/L
- CHLORIDE [1]: 106 MEQ/L
- CHOLESTEROL [1]: 66.33 mg/dL
- CREATINE PHOSPHOKINASE [1]: 609 u/L
- CREATININE [1]: 0.21 mg/dL
- GLUCOSE [1]: 159 mg/dL
- LACTATE DEHYDROGENASE [1]: 465 u/L
- LIPASE [1]: 9.67 u/L
- PHOSPHORUS [1]: 13.17 mg/dL
- POTASSIUM [1]: 6.21 MEQ/L
- SODIUM [1]: 144.2 MEQ/L
- TOTAL BILIRUBIN [1]: 0.13 mg/dL
- TOTAL PROTEIN [1]: 5.9 G/DL
- URIC ACID [1]: 1.77 mg/dL
- ABSOLUTE BASOPHIL [2]: 0 CELLS/uL
- ABSOLUTE EOSINOPHIL [2]: 0 CELLS/uL
- ABSOLUTE LYMPHOCYTE [2]: 13225.33 CELLS/uL
- ABSOLUTE MONOCYTE [2]: 319.33 CELLS/uL
- ABSOLUTE SEGMENTED NEUTROPHIL [2]: 888.67 CELLS/uL
- BASOPHIL [2]: 0%
- EOSINOPHIL [2]: 0%
- ERYTHROCYTE COUNT [2]: 5.61 x10E6/uL
- HEMATOCRIT [2]: 35.1%
- HEMOGLOBIN [2]: 13.27 G/DL
- LEUKOCYTE COUNT [2]: 14.43 x10E3/uL
- LYMPHOCYTE [2]: 91.33%
- MEAN CORPUSCULAR HEMOGLOBIN [2]: 23.63 pg
- MEAN CORPUSCULAR HEMOGLOBIN CONCENTRATION [2]: 37.83 G/DL
- MEAN CORPUSCULAR VOLUME [2]: 62.53 fL
- MONOCYTE [2]: 2.33%
- NEUTROPHIL [2]: 6.33%
- NUCLEATED RED BLOOD CELLS [2]: 0 /100WBC
- PLATELET COUNT [2]: 1433.33 x10E3/uL
- ALANINE AMINOTRANSFERASE [2]: 58.67 u/L
- ALBUMIN [2]: 3.97 G/DL
- ALKALINE PHOSPHATASE [2]: 399 u/L
- ASPARTATE AMINOTRANSFERASE [2]: 91.67 u/L
- BLOOD UREA NITROGEN [2]: 14.33 mg/dL
- CARBON DIOXIDE [2]: 25 mmol/L
- CHLORIDE [2]: 103.67 MEQ/L
- CHOLESTEROL [2]: 64.67 mg/dL
- CREATINE PHOSPHOKINASE [2]: 345 u/L
- CREATININE [2]: 0.23 mg/dL
- GLUCOSE [2]: 157.67 mg/dL
- LACTATE DEHYDROGENASE [2]: 414.67 u/L
- LIPASE [2]: 9 u/L
- PHOSPHORUS [2]: 11.17 mg/dL
- POTASSIUM [2]: 6.18 MEQ/L
- SODIUM [2]: 143.13 MEQ/L
- TOTAL BILIRUBIN [2]: 0.2 mg/dL
- TOTAL PROTEIN [2]: 5.33 G/DL
- URIC ACID [2]: 2.03 mg/dL
- ABSOLUTE BASOPHIL [3]: 0 CELLS/uL
- ABSOLUTE EOSINOPHIL [3]: 46.67 CELLS/uL
- ABSOLUTE LYMPHOCYTE [3]: 15630.33 CELLS/uL
- ABSOLUTE MONOCYTE [3]: 287 CELLS/uL
- ABSOLUTE SEGMENTED NEUTROPHIL [3]: 969.33 CELLS/uL
- BASOPHIL [3]: 0%
- EOSINOPHIL [3]: 0.33%
- ERYTHROCYTE COUNT [3]: 5.98 x10E6/uL
- HEMATOCRIT [3]: 36.77%
- HEMOGLOBIN [3]: 13.93 G/DL
- LEUKOCYTE COUNT [3]: 16.93 x10E3/uL
- LYMPHOCYTE [3]: 92.33%
- MEAN CORPUSCULAR HEMOGLOBIN [3]: 23.33 pg
- MEAN CORPUSCULAR HEMOGLOBIN CONCENTRATION [3]: 37.93 G/DL
- MEAN CORPUSCULAR VOLUME [3]: 61.5 fL
- MONOCYTE [3]: 1.67%
- NEUTROPHIL [3]: 5.67%
- NUCLEATED RED BLOOD CELLS [3]: 0 /100WBC
- PLATELET COUNT [3]: 1391 x10E3/uL
- ALANINE AMINOTRANSFERASE [3]: 69 u/L
- ALBUMIN [3]: 4.43 G/DL
- ALKALINE PHOSPHATASE [3]: 394.33 u/L
- ASPARTATE AMINOTRANSFERASE [3]: 96.33 u/L
- BLOOD UREA NITROGEN [3]: 16 mg/dL
- CARBON DIOXIDE [3]: 28 mmol/L
- CHLORIDE [3]: 106.33 MEQ/L
- CHOLESTEROL [3]: 63.33 mg/dL
- CREATINE PHOSPHOKINASE [3]: 1265 u/L
- CREATININE [3]: 0.3 mg/dL
- GLUCOSE [3]: 145.67 mg/dL
- LACTATE DEHYDROGENASE [3]: 187.33 u/L
- LIPASE [3]: 9.33 u/L
- PHOSPHORUS [3]: 12.2 mg/dL
- POTASSIUM [3]: 6.24 MEQ/L
- SODIUM [3]: 145.8 MEQ/L
- TOTAL BILIRUBIN [3]: 0.2 mg/dL
- TOTAL PROTEIN [3]: 6.07 G/DL
- URIC ACID [3]: 1.97 mg/dL
